In patent US9671340B2, “Measurement method for determining an organ function” (SMARTDYELIVERY GMBH, priority 2010, dated 2017):
Where two headings read alike, the source gives them in different places.

What was measured:
[1] = rat, in vivo
Description: (§1) Male WISTAR rats (12-16 weeks old, body mass 400±50 g; Harlan Laboratories, Horst, Netherlands) were used in this study. All tests were carried out in accordance with the German laws for the protection of animals and with the approval of the regional animal protection commission in Bad Langensalza, Thuringia, Germany. The body temperature was kept constant at 37° during the surgical preparation and the experimental tests, in each case using a warming plate and a heatable specimen stage of the microscope. All preparations were carried out under aseptic conditions.
A special model of polymicrobial sepsis with some modifications was used, which was originally described by Bauhofer (Bauhofer et al., 2004, 2006; Lorenz et al., 2004). With this model the sepsis is induced by peritoneal contamination and infection (PCI).
A standardised human stool inoculum was used for the PCI. Immediately after collection, the stool sample was diluted 1:1 with pre-reduced thioglycolate-bouillion, containing 10% sterile barium sulphate and 10% glycerol, and was then homogenised under anaerobic conditions. Lastly, the stool samples were stored at −80° C. until use. Before the inoculation, the stool samples were diluted 1:4 in 0.9% NaCl. The inoculum was analysed microbiologically in order to establish the number of strains after storage. The rats were instrumented 24 h before the PCI and anaesthetised using Desflurane (Baxter, Munich, Germany) via a facemask. A jugular vein catheter (polyethylene, autoclave-sterilised, OD:1.0 mm, Portex, UK) was used for the fluid replacement and was tunneled subcutaneously as far as the approach to the nape of the neck. The catheter was mounted on a hinge-jointed retaining system, which enabled unrestricted movement in the cage after recovery from the anaesthetic.
In introductory studies, the dose of the inoculum was adapted such that a 100% mortality rate was achieved within 40 h. The animals were assigned randomly to the control group (sham) or the PCI group. With short ether anaesthesia, the inoculum was injected intraperitoneally into the pelvis region using a 21 G cannula. The animals in the control group (sham) received 0.9% NaCl in the same amount. After the procedure, both groups received fluid replacement (10 ml/kg/KG/h, Jonosteril®, Fresenius Kabi GmbH, Germany) as well as food and water ad libitum.
The plasma disappearance rate (PDR) and the bile excretion of the dyes DY635 (Dyomics, Jena, Germany) and indocyanine green as a comparative experiment (ICG; Pulsion, Munich, Germany) were determined in vivo.
The animals were anaesthetised 15 h after sepsis or induction of the control group.
An arterial catheter was used for haemodynamic monitoring. A midline and right subcostal laparotomy was performed and the ductus choledochus was provided with a polyethylene catheter (polyethylene, autoclave-sterilised, OD:1.0 mm, Portex, UK) for the collection of bile via a cannula. The wound was then closed using Mersilene 2-0 (Ethicon, Hamburg, Germany) and the anaesthetisation was maintained.
The dye was administered via a jugular vein catheter. The blood samples and bile samples were taken from the zero point and then every 15 min for a period of 60 min. Blood losses caused by these blood samples were adequately counter balanced by infusions. The haemodynamic monitoring was carried out continuously.

[2] = In vivo determination of hepatocellular and canalicular transport by intravital epifluorescence microscopy of the liver; set-up: species or system WISTAR rats; conditions: periportal and perivenous areas, up to 35 min after application
Description: Changes to the hepatocellular uptake and the canalicular elimination were measured 15 h after sepsis or induction of the control group by in vivo imaging of the exclusively hepatocytically eliminated dye indocyanine green (Pulsion, Munich, Germany) and of DY635 using an inverted epiflourescence microscope (AxioObserver® Z1; Zeiss, Jena, Germany), equipped with a computer-controlled, highly-precise scanning platform (Marzhäuser, Wetzlar, Germany).
775 nm to 805 nm excitation and 845 nm to 855 nm emission bandpass filters were used to image the dye indocyanine green. […]
In order to locate 16 regions (regions of interest: ROI) for the in vivo imagings of the dye, the liver surface was rasterised; 8 pericentral and 8 periportal regions were established and the exact position thereof was determined on the computer-controlled scanning stage using AxioVision® software and stored so that the predefined ROI were accessible during future experiments. […]
Before the indocyanine green or DY635 was added, base line images of the defined ROI were recorded using the AxioVision® multi-channel module (×40/0.6 lens, 365 nm to 395 nm excitation and 445 nm to 450 nm emission bandpass filter and 775 nm to 805 nm excitation and 845 nm to 855 nm emission bandpass filter). […]

cultivated hepatocytes = assay: Cytotoxicity, survival of cultivated hepatocytes 24 h after addition of dye (MTT assay); type: cell-based
Description: FIG. 6: comparison of the cytotoxicity between ICG and DY635. In each case the survival of cultivated hepatocytes 24 h after addition of different concentration of the dyes is shown (MTT assay).

[3] = In vivo determination of kidney function, imaging of dye excretion via the kidneys; set-up: species or system WISTAR rats
Description: as §1
Further experiments were carried out to ascertain kidney function using DY652 (data not shown here) and DY647.
The kidney tissue and the widely ramified kidney vascular system can be seen in the recorded images.
FIG. 7: in vivo imaging of the excretion of DY647 via the kidneys.

[4] = Water solubility of the dye; type: physicochemical
[5] = cited from earlier work
[6] = at clinically conventional dose; cited from earlier work

## CC(C)(C)c1cc(/C=C/C=C2/N(CCCCCC(=O)O)c3ccc(S(=O)(=O)O)cc3C2(C)C)c2cc3c4c(c2[o+]1)CCCN4CCC3 [DY635]
[1]; male, Wistar
  plasma concentration of the dye immediately after application, septic vs control animals: Less DY635 in the plasma was traceable in the healthy animals than in the sick animals
  time to complete uptake of the dye into the hepatocytes: ≤ 15 min
[1]
  accumulation of the dye in healthy animals, compared with ICG: accumulates much less considerably in healthy animals than ICG
  detection of the dye in the kidneys or in the urine: could not be detected
  speed of canalicular excretion into the bile fluid, compared with ICG: excreted more quickly
[2]
  decrease of specific fluorescence intensity (dye concentration) in the organ tissue, compared with ICG: decreases much more sharply
Cultivated hepatocytes
  cytotoxicity in comparison with ICG: very low cytotoxicity

## CCN1/C(=C/C=C/C=C/C2=[N+](CC)c3ccc(S(=O)(=O)O)cc3C2(C)C)C(C)(CCCC(=O)O)c2cc(S(=O)(=O)O)ccc21 (stereo not drawn) [DY647, 2-{(1E,3E)-5-(3-(3-carboxy-propyl)-1-ethyl-3-methyl-5-sulfo-1,3-dihydro-indol-(2E)-ylidene]-penta-1,3-dienyl)-1-ethyl-3,3-dimethyl-5-sulfo-3H-indolium]
[3]; 5 minutes after application
  location of the dye in the kidneys: can be seen in the vascular system of the kidneys
[3]; after 90 minutes
  location of the dye in the kidneys: has left the vascular system and can be seen in the kidney tubules
[3]; after application
  detection of the dye in urine after application: detected in urine
[3]; in vivo measurements of the kidneys
  route of excretion: excreted selectively via the kidneys
[4]
  solubility in water: water-soluble

## CC1(C)C(/C=C/C=C/C=C/C=C2\N(CCCCS(=O)(=O)O)c3ccc4ccccc4c3C2(C)C)=[N+](CCCCS(=O)(=O)[O-])c2ccc3ccccc3c21 [ICG, indocyanine green]
[5]; current state of knowledge
  metabolism and extrahepatic elimination: neither metabolised nor eliminated extrahepatically
[5]; following intravenous injection (0.1-0.5 mg/kg KG)
  time until the dye appears unconjugated in the bile: approximately 8 min
[5]; following intravenous injection, within a short period of time
  binding to plasma proteins: fully bonded to plasma proteins
[1]
  dye concentration in the bile after 60 minutes: high ICG values could still be measured
  plasma concentration of the dye immediately after application, septic vs control animals: Less ICG can be traced in the plasma of the septic animals
[6]
  toxicity: negligible toxicity
